This note sets out measurements from ChEMBL document CHEMBL1144968, “Novel, highly potent, selective 5-HT2A/D2 receptor antagonists as potential atypical antipsychotics” (Bioorg Med Chem Lett, 2003).

Assay [1] concerns the target 5-hydroxytryptamine receptor 2A (Homo sapiens, UniProt P28223). Put plainly: Binding affinity towards 5-hydroxytryptamine 2A receptor using [125I]DOI as radioligand.
The next assay addresses D(2) dopamine receptor (Homo sapiens, UniProt P14416). Put plainly: Binding affinity towards DA D2 receptor using [3H]N-methyl-spiperone as radioligand.
The target in assay [2] is Dopamine D2 receptor and serotonin 2a receptor (Homo sapiens) (UniProt P14416+P28223). Description: Selectivity ratio for inhibition of dopamine D2 receptor to that of 5-HT2A receptor. It is filed as protein assay.
Chain of Dopamine D2 receptor and serotonin 2a receptor (Homo sapiens) (P14416 whole entry, looked up): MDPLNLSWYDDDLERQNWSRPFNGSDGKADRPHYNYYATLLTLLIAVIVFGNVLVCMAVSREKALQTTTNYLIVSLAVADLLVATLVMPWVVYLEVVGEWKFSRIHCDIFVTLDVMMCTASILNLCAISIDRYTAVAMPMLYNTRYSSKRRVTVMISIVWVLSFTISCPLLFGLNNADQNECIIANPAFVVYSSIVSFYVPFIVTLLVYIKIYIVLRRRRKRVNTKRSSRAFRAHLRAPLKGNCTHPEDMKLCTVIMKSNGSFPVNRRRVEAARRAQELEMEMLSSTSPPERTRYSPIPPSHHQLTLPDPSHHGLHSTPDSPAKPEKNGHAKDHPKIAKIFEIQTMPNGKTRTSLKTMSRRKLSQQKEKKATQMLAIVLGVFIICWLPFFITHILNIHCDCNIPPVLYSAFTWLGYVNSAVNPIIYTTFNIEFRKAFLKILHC
Chain of Dopamine D2 receptor and serotonin 2a receptor (Homo sapiens) (P28223 whole entry, looked up): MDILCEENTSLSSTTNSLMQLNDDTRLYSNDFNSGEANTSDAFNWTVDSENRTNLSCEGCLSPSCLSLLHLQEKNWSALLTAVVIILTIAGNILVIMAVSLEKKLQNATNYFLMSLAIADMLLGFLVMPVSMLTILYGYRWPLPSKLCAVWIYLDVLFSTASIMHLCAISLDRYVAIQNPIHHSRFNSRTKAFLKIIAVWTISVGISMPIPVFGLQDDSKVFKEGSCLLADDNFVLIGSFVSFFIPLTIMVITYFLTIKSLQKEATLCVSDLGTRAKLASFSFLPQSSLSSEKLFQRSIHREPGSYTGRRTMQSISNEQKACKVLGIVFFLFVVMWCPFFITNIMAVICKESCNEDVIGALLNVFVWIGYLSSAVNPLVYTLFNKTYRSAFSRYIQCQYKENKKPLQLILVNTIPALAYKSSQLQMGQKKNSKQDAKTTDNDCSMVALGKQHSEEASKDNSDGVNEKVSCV
For assay [3], the target named is T1, 5-hydroxytryptamine receptor 2C (Homo sapiens, UniProt P28335).
T1 sequence (P28335 whole entry): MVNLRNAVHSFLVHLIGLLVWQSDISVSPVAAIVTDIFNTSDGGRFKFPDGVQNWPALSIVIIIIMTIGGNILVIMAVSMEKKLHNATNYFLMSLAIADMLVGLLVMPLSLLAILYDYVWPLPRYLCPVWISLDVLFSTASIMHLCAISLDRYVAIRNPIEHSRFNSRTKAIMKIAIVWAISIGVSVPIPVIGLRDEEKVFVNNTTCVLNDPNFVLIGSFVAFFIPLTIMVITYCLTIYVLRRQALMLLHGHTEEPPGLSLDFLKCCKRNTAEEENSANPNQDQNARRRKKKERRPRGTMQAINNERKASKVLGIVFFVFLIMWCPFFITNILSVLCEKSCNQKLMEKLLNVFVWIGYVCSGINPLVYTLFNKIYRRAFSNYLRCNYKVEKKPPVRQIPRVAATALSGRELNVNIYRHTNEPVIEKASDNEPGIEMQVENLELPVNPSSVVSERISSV
Description: Binding affinity towards 5-hydroxytryptamine 2C receptor using [125I]DOI as radioligand.

The test system of the next assay is Rattus norvegicus. Put plainly: Inhibition of quipazine induced head twitching after peroral administration in rat. The assay is classed as functional. Particulars: po.

Chain of 5-hydroxytryptamine receptor 2A (P28223 whole entry): as the sequence (P28223 whole entry, looked up) above
Chain of D(2) dopamine receptor (P14416 whole entry): as the sequence (P14416 whole entry, looked up) above

A word on the Ki: it is a measure of affinity in units of concentration, obtained from inhibition or displacement. Read a low Ki as a stronger hold on the target. In the case of `Nc1cc(Br)ccc1C(=O)CCCN1CC[C@H]2[C@@H](C1)c1cccc3c1N2CCCS3`, the Ki in assay [1] was 79 nM; at D(2) dopamine receptor it was 4.7 nM; in assay [3], 112 nM. Moreover, the Ratio in assay [2] is 0.06.

Take `Nc1c(F)cccc1C(=O)CCCN1CC[C@H]2[C@@H](C1)c1cccc3c1N2CCCS3`: the Ki in assay [1] came to 7.6 nM; at D(2) dopamine receptor, 14 nM; in assay [3] it was 672 nM. In addition, in assay [2], the Ratio was determined as 1.8.

Take `Nc1ccccc1C(=O)CCCN1CC[C@@H]2[C@H](C1)c1cccc3c1N2CCC3`: the Ki in assay [1] amounted to 3.7 nM; on D(2) dopamine receptor it was 63 nM; in assay [3], 94 nM. Moreover, the Ratio in assay [2] worked out at 17.

Broadly, the ED50 is the dose at which the effect has come halfway, by size or by number of responders. A lower ED50 goes with greater potency. `O=C(CCCN1CC[C@H]2[C@@H](C1)c1cccc3c1N2CCCS3)c1ccc(F)cc1`: the Ki in assay [1] came to 2.5 nM; on D(2) dopamine receptor it was 8.8 nM; in assay [3], 609 nM. For the same compound, in assay [2], the Ratio is 3.5. For the same compound, the ED50 in the assay on Rattus norvegicus was 0.86 mg/kg.

For the compound `Nc1ccccc1C(=O)CCCN1CC[C@H]2[C@@H](C1)c1cccc3c1N2CCCS3` (stereo in doubt; 4) [listing 1 of 2 here], the Ki in assay [1] stood at 2.1 nM; on D(2) dopamine receptor it was 6 nM; in assay [3] it was 200 nM.

For the compound `Nc1cc(F)ccc1C(=O)CCCN1CC[C@H]2[C@@H](C1)c1cccc3c1N2CCCC3`, the values for the Ki (in assay [1]; at D(2) dopamine receptor; in assay [3]) were 0.6 nM, 3.5 nM and 136 nM, respectively. Besides, the Ratio in assay [2] worked out at 5.8.

On to `Nc1ccccc1C(=O)CCCN1CC[C@H]2[C@@H](C1)c1cccc3c1N2CCO3`, for which the Ki turned out to be 1.6 nM in assay [1], 23 nM at D(2) dopamine receptor and 335 nM in assay [3]. Further, the Ratio in assay [2] amounted to 14.

For `Nc1cc(F)ccc1C(=O)CCCN1CC[C@H]2[C@@H](C1)c1cccc3c1N2CCCS3` (stereo in doubt; 6) [listing 1 of 2 here], the Ratio in assay [2] stood at 5.9.

For the compound `Nc1cc(F)ccc1C(=O)CCCN1CC[C@@H]2[C@H](C1)c1cccc3c1N2CCCC3`, the Ki amounted to 0.9 nM in assay [1], 19 nM at D(2) dopamine receptor and 136 nM in assay [3]. Also, the Ratio in assay [2] was 21.

For `Nc1cc(F)ccc1C(=O)CCCN1CC[C@H]2[C@@H](C1)c1cccc3c1N2CCS3`, the Ki in assay [1] turned out to be 0.3 nM; on D(2) dopamine receptor it was 4 nM; in assay [3], 90 nM. Besides, the Ratio in assay [2] turned out to be 13.

Turning to `Nc1ccccc1C(=O)CCCN1CC[C@H]2[C@@H](C1)c1cccc3c1N2CCCS3` (stereo in doubt; (+)-4) [listing 1 of 2 here], the Ratio in assay [2] stood at 25.

As to `Nc1ccccc1C(=O)CCCN1CC[C@@H]2[C@H](C1)c1cccc3c1N2CCCC3`, the results for the Ki (in assay [1]; at D(2) dopamine receptor; in assay [3]) were 3.1 nM, 20 nM and 148 nM, respectively. Further, the Ratio in assay [2] amounted to 6.5.

In the case of `Nc1cc(F)ccc1C(=O)CCCN1CC[C@@H]2[C@H](C1)c1cccc3c1N2CCO3`, the Ki was 2.8 nM in assay [1], 16 nM at D(2) dopamine receptor and 664 nM in assay [3]. In assay [2], the Ratio stood at 5.7. The 50% effect level with Rattus norvegicus (ED50) was put at a dose of 0.03 mg/kg.

Take `CCOC(=O)Nc1cc(F)ccc1C(=O)CCCN1CC[C@H]2[C@@H](C1)c1cccc3c1N2CCCS3`: the Ki was 51 nM in assay [1], 15.1 nM on D(2) dopamine receptor and 349 nM in assay [3]. For the same compound, in assay [2], the Ratio amounted to 0.29.

With `Nc1cc(F)ccc1C(=O)CCCN1CC[C@H]2[C@@H](C1)c1cccc3c1N2CCCS3` (stereo in doubt; 6) [listing 2 of 2 here], the Ki was found to be 0.7 nM in assay [1], 4.1 nM on D(2) dopamine receptor and 106 nM in assay [3].

As for `Nc1cc(F)ccc1C(=O)CCCN1CC[C@H]2[C@@H](C1)c1cccc3c1N2CCO3`, the Ki was 0.2 nM in assay [1], 2.3 nM at D(2) dopamine receptor and 128 nM in assay [3]. The Ratio in assay [2] turned out to be 12.

On to `Nc1ccccc1C(=O)CCCN1CC[C@H]2[C@@H](C1)c1cccc3c1N2CCCS3` (stereo in doubt; (+)-4) [listing 2 of 2 here], for which the Ki in assay [1] was determined as 0.6 nM; at D(2) dopamine receptor, 15 nM; in assay [3], 172 nM.

In the case of `Nc1cc(F)ccc1C(=O)CCCN1CC[C@@H]2[C@H](C1)c1cccc3c1N2CCS3`, the inhibition constant (Ki) in assay [1] worked out at 1.5 nM; on D(2) dopamine receptor, 14 nM; in assay [3], 184 nM. For the same compound, the Ratio in assay [2] was 9.3.

`Nc1cc(F)ccc1C(=O)CCCN1CC[C@@H]2[C@H](C1)c1cccc3c1N2CCCS3`: the Ki in assay [1] was determined as 4.2 nM; on D(2) dopamine receptor, 4.7 nM; in assay [3], 452 nM. For the same compound, in assay [2], the Ratio was 1.1.

As to `Nc1cc(F)ccc1C(=O)CCCN1CC[C@H]2[C@@H](C1)c1cccc3c1N2CCCS3` (stereo in doubt; (+)-6) [listing 1 of 2 here], the Ki was 0.4 nM in assay [1], 2.7 nM at D(2) dopamine receptor and 82 nM in assay [3]. Moreover, it took a dose of 0.52 mg/kg to reach the 50% effect level in the assay on Rattus norvegicus (ED50).

Turning to `O=CNc1cc(F)ccc1C(=O)CCCN1CC[C@H]2[C@@H](C1)c1cccc3c1N2CCCS3`, the inhibition constant (Ki) in assay [1] turned out to be 90 nM; on D(2) dopamine receptor, 7.7 nM; in assay [3], 259 nM. Besides, in assay [2], the Ratio came out at 0.09.

Take `CNc1ccccc1C(=O)CCCN1CC[C@H]2[C@@H](C1)c1cccc3c1N2CCCS3`: the Ki in assay [1] was determined as 62 nM; at D(2) dopamine receptor it was 31 nM; in assay [3], 253 nM. The Ratio in assay [2] is 0.5.

For `CS(=O)(=O)Nc1cc(F)ccc1C(=O)CCCN1CC[C@H]2[C@@H](C1)c1cccc3c1N2CCCS3`, the results for the Ki (in assay [1]; at D(2) dopamine receptor; in assay [3]) were 7.5 nM, 18 nM and 639 nM, respectively. In addition, the Ratio in assay [2] was determined as 2.4.

For the compound `CC(=O)Nc1cc(F)ccc1C(=O)CCCN1CC[C@H]2[C@@H](C1)c1cccc3c1N2CCCS3`, the figures for the Ki (in assay [1]; at D(2) dopamine receptor; in assay [3]) were 0.8 nM, 3.4 nM and 222 nM, respectively. For the same compound, the Ratio in assay [2] came to 4.3.

Turning to `Nc1cc(F)ccc1C(=O)CCCN1CC[C@H]2[C@@H](C1)c1cccc3c1N2CCC3`, the Ki in assay [1] turned out to be 0.5 nM; at D(2) dopamine receptor, 5.2 nM; in assay [3] it was 53 nM. Moreover, in assay [2], the Ratio turned out to be 10.2.

In the case of `Nc1ccccc1C(=O)CCCN1CC[C@@H]2[C@H](C1)c1cccc3c1N2CCS3`, the Ki in assay [1] worked out at 6.6 nM; at D(2) dopamine receptor, 19 nM; in assay [3], 237 nM. The Ratio in assay [2] turned out to be 2.9.

In the case of `Nc1ccccc1C(=O)CCCN1CC[C@@H]2[C@H](C1)c1cccc3c1N2CCCS3`, the Ki in assay [1] amounted to 10.4 nM; at D(2) dopamine receptor, 5.9 nM; in assay [3], 320 nM. The Ratio in assay [2] was found to be 0.57.

On to `Nc1ccccc1C(=O)CCCN1CC[C@H]2[C@@H](C1)c1cccc3c1N2CCS3`, for which the Ki in assay [1] came out at 0.8 nM; at D(2) dopamine receptor, 41 nM; in assay [3], 417 nM. For the same compound, the Ratio in assay [2] is 51.

`Nc1ccccc1C(=O)CCCN1CC[C@@H]2[C@H](C1)c1cccc3c1N2CCO3`: the Ki in assay [1] came to 11.9 nM; at D(2) dopamine receptor, 60 nM; in assay [3] it was 501 nM. Moreover, the Ratio in assay [2] amounted to 5.

As to `Nc1cc(Cl)ccc1C(=O)CCCN1CC[C@H]2[C@@H](C1)c1cccc3c1N2CCCS3`, the Ki came out at 70 nM in assay [1], 2.3 nM on D(2) dopamine receptor and 754 nM in assay [3]. In addition, the Ratio in assay [2] was 0.03.

Take `O=C(CCCN1CC[C@H]2[C@@H](C1)c1cccc3c1N2CCCS3)c1ccccc1`: the Ki in assay [1] was 2.7 nM; at D(2) dopamine receptor, 17 nM; in assay [3], 417 nM. Besides, the Ratio in assay [2] came to 6.3.

Regarding `Nc1ccccc1C(=O)CCCN1CC[C@H]2[C@@H](C1)c1cccc3c1N2CCCC3`, the Ki in assay [1] was 0.7 nM; at D(2) dopamine receptor, 11 nM; in assay [3], 106 nM. In addition, the Ratio in assay [2] was 16.

Consider `Nc1ccccc1C(=O)CCCN1CC[C@H]2[C@@H](C1)c1cccc3c1N2CCC3`, for which the Ki in assay [1] amounted to 0.8 nM; on D(2) dopamine receptor, 68 nM; in assay [3], 106 nM. Also, the Ratio in assay [2] worked out at 85.

As for `Nc1ccc(F)cc1C(=O)CCCN1CC[C@H]2[C@@H](C1)c1cccc3c1N2CCCS3`, the Ki came out at 15 nM in assay [1], 15 nM at D(2) dopamine receptor and 258 nM in assay [3]. Also, in assay [2], the Ratio was determined as 1.

For `Nc1cc(F)ccc1C(=O)CCCN1CC[C@@H]2[C@H](C1)c1cccc3c1N2CCC3`, the Ki in assay [1] came to 1.2 nM; on D(2) dopamine receptor it was 29 nM; in assay [3] it was 71 nM. Moreover, in assay [2], the Ratio amounted to 24. Also, the ED50 in the assay with Rattus norvegicus was 1.4 mg/kg.

Turning to `Nc1cc(O)ccc1C(=O)CCCN1CC[C@H]2[C@@H](C1)c1cccc3c1N2CCCS3`, the Ki was 90 nM in assay [1], 50 nM on D(2) dopamine receptor and 259 nM in assay [3]. For the same compound, the Ratio in assay [2] was 0.56.

As to `CCNC(=O)Nc1cc(F)ccc1C(=O)CCCN1CC[C@H]2[C@@H](C1)c1cccc3c1N2CCCS3`, the Ki came to 11 nM in assay [1], 26 nM on D(2) dopamine receptor and 48 nM in assay [3]. Moreover, the Ratio in assay [2] was 2.3.

`Nc1cc(F)ccc1C(=O)CCCN1CC[C@H]2[C@@H](C1)c1cccc3c1N2CCCS3` (stereo in doubt; (+)-6) [listing 2 of 2 here]: the Ratio in assay [2] was found to be 6.8.

In the case of `Nc1ccccc1C(=O)CCCN1CC[C@H]2[C@@H](C1)c1cccc3c1N2CCCS3` (stereo in doubt; 4) [listing 2 of 2 here], in assay [2], the Ratio worked out at 2.9.
